US8048825B2, “Haloalkylsulfonanilide derivatives or salt thereof, herbicide comprising the derivatives as active ingredient, and use of the herbicide” (Nihon Nohyaku Co., Ltd., priority 2006, dated 2011)

Tests used:
Assay type in all cases: in vivo
Lindernia procumbens [1] = test: Herbicidal efficacy on paddy field weeds of pre-emergence stage (Pre), Test Example 1; details: 1000 g/ha as active ingredient, examined after 21 days
How it was run: (§1)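 Clay-loam pots sown with Scirpus juncoides, covered with soil containing Lindernia procumbens seed, flooded to 5 cm. Next day formulated compound applied dropwise to water at 1000 g/ha a.i. Greenhouse-grown; growth inhibition versus untreated scored 0–5 after 21 days.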

Scirpus juncoides [2] = test: as above; details: 1000 g/ha as active ingredient, examined after 21 days
How it was run: as §1

Lindernia procumbens [3] = test: Herbicidal effect on paddy field weeds of post-emergence stage (Post), Test Example 2; details: one-leaf stage, 1000 g/ha as active ingredient, examined after 21 days
How it was run: (§2)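 Scirpus juncoides and Echinochloa crus-galli sown in clay loam, with Lindernia procumbens seed in the soil cover, under 5 cm flooding in greenhouse. At one-leaf stage, 1000 g/ha active ingredient applied to pot water. Efficacy scored visually 0–5 against untreated plants at 21 days after treatment.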

Scirpus juncoides [4] = test: as above; details: one-leaf stage, 1000 g/ha as active ingredient, examined after 21 days
How it was run: as §2

Echinochloa crus-galli = test: as above; details: one-leaf stage, 1000 g/ha as active ingredient, examined after 21 days
How it was run: as §2

| Compound | Lindernia procumbens pre (herbicidal effect) (Lindernia procumbens [1]) | Scirpus juncoides pre (herbicidal effect) (Scirpus juncoides [2]) | Lindernia procumbens post (herbicidal effect) (Lindernia procumbens [3]) | Scirpus juncoides post (herbicidal effect) (Scirpus juncoides [4]) | Echinochloa crus-galli post (herbicidal effect) (Echinochloa crus-galli) |
| --- | --- | --- | --- | --- | --- |
| COC(=O)N(c1ccccc1CN1CCC(C)COC1=O)S(=O)(=O)C(F)(F)F (racemic) [2-24] | 4 (90%-99% herbicidal effect, phytotoxicity) | 4 (90%-99% herbicidal effect, phytotoxicity) | 4 (90%-99% herbicidal effect, phytotoxicity) | 4 (90%-99% herbicidal effect, phytotoxicity) | 4 (90%-99% herbicidal effect, phytotoxicity) |
| CCOC(=O)N(c1ccccc1CN1CCC(C)COC1=O)S(=O)(=O)C(F)(F)F (racemic) [2-25] | 4 (90%-99% herbicidal effect, phytotoxicity) | 4 (90%-99% herbicidal effect, phytotoxicity) | 4 (90%-99% herbicidal effect, phytotoxicity) | 4 (90%-99% herbicidal effect, phytotoxicity) | 4 (90%-99% herbicidal effect, phytotoxicity) |
| CCCCOC(=O)N(c1ccccc1CN1CCC(C)COC1=O)S(=O)(=O)C(F)(F)F (racemic) [2-27] | 4 (90%-99% herbicidal effect, phytotoxicity) | 4 (90%-99% herbicidal effect, phytotoxicity) | 4 (90%-99% herbicidal effect, phytotoxicity) | 4 (90%-99% herbicidal effect, phytotoxicity) | 4 (90%-99% herbicidal effect, phytotoxicity) |
| CC1CCN(Cc2ccccc2N(C(=O)OCC(Cl)(Cl)Cl)S(=O)(=O)C(F)(F)F)C(=O)OC1 (racemic) [2-34] | 4 (90%-99% herbicidal effect, phytotoxicity) | 4 (90%-99% herbicidal effect, phytotoxicity) | 4 (90%-99% herbicidal effect, phytotoxicity) | 4 (90%-99% herbicidal effect, phytotoxicity) | 4 (90%-99% herbicidal effect, phytotoxicity) |
| CCOCN(c1ccccc1CN1CCC(CC)(C(F)(F)F)OC1=O)S(=O)(=O)C(F)(F)F (stereo not drawn) [Compound 1-100] | 5 (100% herbicidal effect, phytotoxicity) | 4 (90%-99% herbicidal effect, phytotoxicity) | 4 (90%-99% herbicidal effect, phytotoxicity) |  | 4 (90%-99% herbicidal effect, phytotoxicity) |
| CCOC(=O)N(c1ccccc1CN1CCC(c2ccccc2)OC1=O)S(=O)(=O)C(F)(F)F (stereo not drawn) [Compound 1-241] | 5 (100% herbicidal effect, phytotoxicity) |  | 5 (100% herbicidal effect, phytotoxicity) | 4 (90%-99% herbicidal effect, phytotoxicity) | 4 (90%-99% herbicidal effect, phytotoxicity) |
| CCOCN(c1ccccc1CN1CCC(c2ccccc2C)OC1=O)S(=O)(=O)C(F)(F)F (stereo not drawn) [Compound 1-292] | 5 (100% herbicidal effect, phytotoxicity) |  | 5 (100% herbicidal effect, phytotoxicity) | 4 (90%-99% herbicidal effect, phytotoxicity) | 4 (90%-99% herbicidal effect, phytotoxicity) |
| CCOCN(c1ccccc1CN1CCC(c2ccccc2C(F)(F)F)OC1=O)S(=O)(=O)C(F)(F)F (stereo not drawn) [Compound 1-303] | 5 (100% herbicidal effect, phytotoxicity) |  | 5 (100% herbicidal effect, phytotoxicity) | 4 (90%-99% herbicidal effect, phytotoxicity) | 4 (90%-99% herbicidal effect, phytotoxicity) |
